Consider one compound from patent US5055594A, “Fluorogenic trypotophanase substrates” (Becton, Dickinson and Company, priority 1990, dated 1991).

The test system of test [1] is tryptophanase. Briefly: Reaction of serine-AMC-carbamate with tryptophanase (fluorescence increase). The class given is biochemical. The conditions noted are these: 1.19×10^-6 M substrate, pH 8.2, 100 μL of 5.0 mq/mL tryptophanase; excitation 365 nm. On the procedure: To a 1.19×10^-6 M solution of serine-AMC-carbamate dissolved in 100 mM potassium phosphate buffer, pH 8.2 was added 100 μL of a 5.0 mq/mL solution of tryptophanase. Fluorescence increase was measured at 440 nm, with excitation at 365 nm. Starting fluorescence of the serine-AMC-carbamate solution was 26 relative units. After addition of the enzyme, fluorescence at 440 nM increased at a rate of 97 units/minute. […] Fluorescence increase in the absence of enzyme was negligible.

Test [2] relates to Citrobacter diversus. The test can be described thus: Determination of the indole reaction of microorganisms (substrate on cellulose disks, AMC release). The class given is cell-based. The conditions noted are these: for FLUORESCENCE INCREASE (ng AMC/min): 3×10^8 cfu/ml, phosphate buffer pH 8.4 with toluene, ex 365 nm, em 440 nm. The method, then:
(§1) Aliquots of 20 microliters of a 0.5% solution of the substrate of Example I dissolved in dimethylsulfoxide were added to cellulose disks (catalog no. 740-E, Schleicher and Schuell, Inc. Keene, N.H.). The DMSO was removed by vacuum dessication. The dried disks were placed in the wells of a black polystyrene microwell tray. Four of the disks were each inoculated with 25 microliters of a suspension containing 3×10^8 colony forming units per ml of the known indole positive microorganisms Escherichia coli and Citrobacter diversus and the known indole negative microorganisms Klebsiella pneumoniae and Citrobacter freundii. The suspensions were made in phosphate buffer, pH 8.4, containing toluene at a concentration of 2 drops per 5 ml of buffer to permeabilize the bacteria. Four disks were inoculated with buffer alone to serve as controls. The disks were excited at 365 nm using a xenon lamp and fluorescence was measured at 1 minute intervals for 10 minutes at a wavelength of 440 nm using a Fluoroskan II (Flow Laboratories, McLean, Va. 22102) reader. Results from the four tubes for each organism were averaged and are expressed in the Table as nanograms of free AMC released per minute.

For test [3], the system named is Citrobacter freundii. Described as above. The class given is cell-based. The conditions noted are these: for FLUORESCENCE INCREASE (ng AMC/min): 3×10^8 cfu/ml, phosphate buffer pH 8.4 with toluene, ex 365 nm, em 440 nm. The method, then:
as §1

In test [4] the test system is Escherichia coli. The test is described as above. The format is cell-based. Conditions: for FLUORESCENCE INCREASE (ng AMC/min): 3×10^8 cfu/ml, phosphate buffer pH 8.4 with toluene, ex 365 nm, em 440 nm. On the procedure:
as §1

The test system of test [5] is Klebsiella pneumoniae. Described as above. The format is cell-based. On the procedure:
as §1

Each structure is given as a SMILES string.

`Cc1cc(=O)oc2cc(NC(=O)OC[C@H](N)C(=O)O)ccc12` [serine-AMC-carbamate]: the “Rate of fluorescence increase at 440 nM after addition of the enzyme” value in test [1] is given as 97 units/minute. Moreover, the “Fluorescence increase compared with the control” value in test [2] (C. diversus (indole positive), versus buffer control) was “much larger fluorescence increases”; in test [3] (C. freundii (indole negative), versus buffer control), “about the same fluorescence increase as the control”; in test [4] (E. coli (indole positive), versus buffer control) it was “much larger fluorescence increases”; in test [5] (K. pneumoniae (indole negative), versus buffer control), “about the same fluorescence increase as the control”. In addition, the “FLUORESCENCE INCREASE (ng AMC/min)” value in test [2] (C. diversus strain 404) is recorded as 5.35 ng AMC/min; in test [2] (C. diversus strain 2075), 4.4 ng AMC/min; in test [3] (C. freundii strain 2027), 0.8 ng AMC/min; in test [3] (C. freundii strain 2058), 0.45 ng AMC/min; in test [4] (E. coli strain 1W9901N1) it was 1.53 ng AMC/min; in test [4] (E. coli strain 2W0803N1) it was 1.85 ng AMC/min. In addition, the “FLUORESCENCE INCREASE (ng AMC/min)” value in test [4] (E. coli strain 4H8162N1) was determined as 1.6 ng AMC/min; in test [4] (E. coli strain 7W0563N1), 1.7 ng AMC/min; in test [5] (K. pneumoniae strain 6N3696N1, 3×10^8 cfu/ml, phosphate buffer pH 8.4 with toluene, ex 365 nm, em 440 nm), 0.5 ng AMC/min.
